Data from patent US6797692B1, “Use of glutamate antagonists for the treatment of cancer” (priority 1998, dated 2004).
Entries after “also recorded” stand apart in the source; their conditions may differ.

What was measured:
[1] = system: human neuroblastoma cell line SK-N-AS; experiment: Tumoricidal effect, necrotic cells by trypan blue staining; format: cell-based; details: Student's t test; for potentiation of tumoricidal effect (toxicity) of cisplatin: antagonist 10 μM plus cisplatin 10 μM; for potentiation of tumoricidal effect (toxicity) of thiotepa: antagonist 10 μM plus thiotepa 10 μM; for potentiation of tumoricidal effect (toxicity) of vinblastin: antagonist 10 μM plus vinblastin 1 μM
Experimental: (§1) Cell lines and culture. Human neuroblastoma (SKNAS), human rhabdomyosarcoma/medulloblastoma (TE671), human brain astrocytoma (MOGGCCM), human thyroid carcinoma (FTC238), human lung carcinoma (A549), human colon adenocarcinoma (LS180) and human breast carcinoma (T47D) were obtained from European Collection of Cell Cultures (ECACC), Center for Applied Microbiology & Research, Salisbury, UK. SKNAS, TE671, T47D, LS180 were grown in 1:1 mixture of Dulbecco's Modified Eagle's Medium (DMEM; D 6421, Sigma, Ca^2+-concentration 1.05 mM) and Nutrient Mixture F-12 Ham (Ham's F-12; Sigma) supplemented with 10% Foetal Bovine Serum (FBS) (GIBCO). FTC238 was grown in the same culture medium suplemented with 5% FBS. MOGGCCM and A549 were grown in 2:1 mixture of DMEM (D 6046, Sigma, Ca^2+-concentration 1.8 mM):Ham's F-12 supplemented with 10% FBS. Cultures were kept at 37° C. in a 95% air-5% CO2 atmosphere. As Ca^2+-free medium, minimum essential medium M8167 from Sigma was used.
Assessment of tumoricidal effect. Quantitation of cell death was performed at 24, 48 or 72 hrs after exposure to the agents of interest following staining of the cells with trypan blue. This stain is taken up by necrotic cells. The numbers of necrotic cells/100 counted cells served as quantitative measure for tumoricidal effect (% of tumor cell death). For each agent or combination of agents and each time point 5 wells were analysed. Comparisons between groups was performed by means of Student's t-test.
(§2) Exposure to agents. Tumor cells were exposed to the following agents and concentrations: MK 801 (10-500 μM), GYKI 52466 (10-500 μM), Cisplatin (10 μM), Vinblastin (1 μM), Thiotepa (10 μM) alone or in combination with MK 801 (10 μM), GYKI 52466 (10 μM) or NBQX (10 μM).
Data represent the mean±SEM of necrotic cells visualized by trypan blue staining (n=5/group). The potentiating effect of all three glutamate receptor antagonists was most prominent after an exposure time of 72 h. *P<0.05; **P<0.01; ***P<0.001, Student's t test.
Data represent the mean±SEM of necrotic cells visualized by trypan blue staining (n=5/group). The potentiating effect of the NMDA- and both AMPA antagonists is most prominent after an exposure time of 72 h. *P<0.05;**P<0.01;***P<0.001, Student's t test.
Data represent the mean±SEM of necrotic cells visualized by trypan blue staining (n=5/group). The potentiating effect of the NMDA- and both AMPA antagonists is most prominent after an exposure time of 48 hrs. *P<0.05;**P<0.01;***P<0.001, Student's t test.

[2] = system: human tumor cell lines (SKNAS, TE671, MOGGCCM, FTC238, A549, LS180, T47D); experiment: MTT assay of cell viability (antiproliferative effect); format: cell-based; details: 10-500 μM over 96 hrs, linear regression
Experimental: as §1
Assessment of cell viability. The yellow tetrazolium salt MTT (3-4,5-dimethylthiazol-2-2,5-diphenyltetrazolium bromid) is metabolized by viable, metabolically active cells to purple formazan crystals. Tumor cells grown in 96 well multiplates were incubated over 4 hrs with MTT solution (Cell proliferation kit I, Boehringer Mannheim, Germany). Formazan crystals were solubilized overnight, according to the manufacturer's instructions, and the product was quantified spectrophotometrically by measuring absorbance at 570 nm wave length using a VICTOR Multilabel Counter (Wallach).
as §2
Cells were exposed to either culture medium alone (control) or dizocilpine (10-500 μM) over 96 hrs and viability was measured photometrically by means of the MTT assay. Data represent mean normalized optical densities±SEM of 6-8 measurements and were analyzed by means of linear regression. Abbreviations. SKNAS: human neuroblastoma; TE671: human rhabdomyosarcoma/medulloblastoma; MOGGCCM: human brain astrocytoma; FTC238: human thyroid carcinoma; A 549: human lung carcinoma; LS180: human colon adenocarcinoma; T47D: human breast carcinoma.
Cells were exposed to either culture medium alone (control) or GYKI52466 (10-500 μM) over 96 hrs and viability was measured photometrically by means of the MTT assay. Data represent mean normalized optical densities SEM of 68 measurements and were analyzed by means of linear regression. Abbreviations. […]

| Compound | potentiation of tumoricidal effect (toxicity) of cisplatin [1] | potentiation of tumoricidal effect (toxicity) of thiotepa [1] | potentiation of tumoricidal effect (toxicity) of vinblastin [1] | antiproliferative effect in human tumor cell lines (viability, MTT assay) [2] | antiproliferative effect in human tumor cell lines (viability, MTT assay) ([2]; listed as GYK152466) | potentiation of tumoricidal effect (toxicity) of cisplatin ([1]; listed as MK801) | potentiation of tumoricidal effect (toxicity) of thiotepa ([1]; listed as MK801) | antiproliferative effect in human tumor cell lines (viability, MTT assay) ([2]; listed as (+)dizocilpine) |
| --- | --- | --- | --- | --- | --- | --- | --- | --- |
| CC1=NN=C(c2ccc(N)cc2)c2cc3c(cc2C1)OCO3 [GYKI 52466] | significantly (P<0.05-0.001) potentiated; also recorded: significantly increase toxicity | significantly (P<0.05-0.001) potentiated; also recorded: potentiate toxicity | significantly (P<0.05-0.001) potentiated; also recorded: potentiate toxicity | concentration dependent antiproliferative effect | significant concentration-dependent antiproliferative effect |  |  |  |
| C[C@]12N[C@H](Cc3ccccc31)c1ccccc12 [MK 801] | significantly (P<0.05-0.001) potentiated | significantly (P<0.05-0.001) potentiated | significantly (P<0.05-0.001) potentiated; also recorded: potentiate toxicity | significant concentration-dependent antiproliferative effect |  | significantly increase toxicity | potentiate toxicity | concentration dependent antiproliferative effect |
| NS(=O)(=O)c1cccc2c1c([N+](=O)[O-])cc1nc(O)c(O)nc12 [NBQX, 2,3-dihydroxy-6-nitro-7-sulfaoylbenzo-(F)-quinoxaline] | significantly (P<0.05-0.001) potentiated; also recorded: significantly increase toxicity | significantly (P<0.05-0.001) potentiated; also recorded: potentiate toxicity | significantly (P<0.05-0.001) potentiated; also recorded: potentiate toxicity |  |  |  |  |  |
